Columns and labels:
gastric mucosa = test: PD: Gastric Mucosal Integrity Test (gastric mucosal potential difference); format: in vivo, rat (male Crj:SD); design: key: 5: Same as the control with no recognizable damage at all.; 4: Though a slight PD-decreasing tendency suggesting a slight possibility of mucosal damage is found, there is no problem.; 3: Though a weak decrease in PD and a possibility of a weak mucosal damage is recognized, there is no substantial problem.; 2: Medium degree of decrease in PD is found and a mucosal damage is recognized.; 1: Heavy degree of decrease in PD is found and a remarkable mucosal damage is recognized; settings: 100 mg/kg into chamber, rats, 60 minutes
Experimental: PD: Gastric Mucosal Integrity Test
In this case, since the sample compound has a necrotizing effect, it is inappropriate as an anti-ulcer medicament.
Therefore, the gastric mucosal potential difference (PD), which reflects the integrity of the gastric mucosa, is measured so as to confirm that the sample compound has no damaging effect on gastric mucosa, which is toxicity at gastric mucosal level.
Male Crj:SD rats (7 to 8-week-old) were fasted overnight, but allowed free access to water, and then, under urethane anesthesia (1.25 g/kg, i.p.), fixed to a cork board on its back. The abdomen of each rat was incised, and a small incision was made in the forestomach. Then, the inside of the stomach was washed with physiological saline heated at 37° C. From the forestomach, along the greater curvature thereof, the stomach was incised without damaging blood vessels. After the height of the cork board was adjusted on a jack, the stomach was mounted on ex vivo chamber. The area of the gastric mucosa exposed to the inside of this chamber was 2.5 cm^2. The inside of the chamber was perfused with physiological saline warmed at 37° C. by micro tube pump. By using an agar bridge containing 3M KCl, the potential difference between the chamber and the abdominal cavity was measured by a PD meter. Here, the rectal temperature was measured to control the body temperature during the experiment. After the PD was sufficiently stabilized, the perfusate was stopped and then 100 mg/10 ml/kg of the sample compound dissolved or suspended in an aqueous solution of 0.5% sodium carboxymethyl cellulose or 0.05% Tween 80 was administered into the chamber, while PD was recorded for 60 minutes. To a control, the vehicle was administered.
The change in PD during 60 minutes after the administration of 100 mg/kg of the sample compound was collectively studied and, with reference to the positive control, classified into 5 levels as follows:
5: Same as the control with no recognizable damage at all.
3: Though a weak decrease in PD and a possibility of a weak mucosal damage is recognized, there is no substantial problem.
2: Medium degree of decrease in PD is found and a mucosal damage is recognized.
1: Heavy degree of decrease in PD is found and a remarkable mucosal damage is recognized.

in vitro = settings: rabbit, gastric mucosal cells

Row | SMILES | PD: change in gastric mucosal potential difference, 5 levels (gastric mucosa) | cytotoxicity at 4 h, 100 µM (in vitro) [%]
1 | CC(C)=CCOc1ccc(C(=O)NCCN2CCOCC2)cc1 [Example 28] | 5 | -39
2 | CC(C)=CCC/C(C)=C/COc1ccc(C(=O)NCCN2CCOCC2)cc1 [Example 31] | 3 | 15
3 | CC(C)=CCOc1ccc(C(=O)NCCN2CCOCC2)cc1OCC=C(C)C [Example 35] | 5 | -17

— patent publication US5814634A, “Alkylenediamine derivative anti-ulcer drug and antibacterial drug” (Shiseido Co. Ltd., priority 1996, dated 1998)
